Data as given in ChEMBL document CHEMBL3351325, “Synthesis and biological evaluation of hydroxycinnamic acid hydrazide derivatives as inducer of caspase-3” (Eur J Med Chem, 2014).
Activity calls are given as the source filed them. No cut-off for these calls is given here.

Columns and labels:
[1] = Antiproliferative activity against human H1299 cells after 24 hrs by MTT assay; type: functional, cell-based; conditions: NCI-H1299, 24 h
[2] = Antiproliferative activity against human NL20 cells after 24 hrs by MTT assay; type: cell-based; conditions: NL20, 24 h
MCF7 = test: Antiproliferative activity against human MCF7 cells after 24 hrs by MTT assay; type: functional, cell-based; conditions: MCF7, 24 h
[3] = Antiproliferative activity against human H184B5F5/M10 cells after 24 hrs by MTT assay; type: functional, cell-based; conditions: H184B5F5/M10, 24 h
[4] = Cell cycle arrest in human H1299 cells assessed as accumulation at Sub-G1 phase at 1.5 uM after 12 hrs by flow cytometry (reference value: 5.3%); type: functional, cell-based; conditions: NCI-H1299
[5] = Cell cycle arrest in human H1299 cells assessed as accumulation at Sub-G1 phase at 1.5 uM after 24 hrs by flow cytometry (reference value: 5.3%); type: functional, cell-based; conditions: NCI-H1299
[6] = Cell cycle arrest in human H1299 cells assessed as reduction in G1 phase at 1.5 uM after 12 to 24 hrs by flow cytometry; type: functional, cell-based; conditions: NCI-H1299
[7] = Cell cycle arrest in human H1299 cells assessed as accumulated at G2/M phase at 1.5 uM by flow cytometry; type: functional, cell-based; conditions: NCI-H1299, TDE = time-dependent effect
[8] = Cell cycle arrest in human H1299 cells assessed as accumulated at G2/M phase at 1.5 uM after 12 hrs by flow cytometry (reference value: 5.4%); type: functional, cell-based; conditions: NCI-H1299
[9] = Cell cycle arrest in human H1299 cells assessed as accumulated at G2/M phase at 1.5 uM after 24 hrs by flow cytometry (reference value: 5.4%); type: functional, cell-based; conditions: NCI-H1299
[10] = Cell cycle arrest in human NL20 cells assessed as accumulation at Sub-G1 phase at 1.5 uM after 12 hrs by flow cytometry (reference value: 4.6 %); type: ADME, cell-based; conditions: nl20, 12 h
[11] = Cell cycle arrest in human NL20 cells assessed as accumulation at Sub-G1 phase at 1.5 uM after 24 hrs by flow cytometry (reference value: 4.6 %); type: ADME, cell-based; conditions: nl20, 24 h
[12] = Cell cycle arrest in human NL20 cells assessed as accumulation at G2/M phase at 1.5 uM after 12 to 24 hrs by flow cytometry; type: ADME, cell-based; conditions: nl20, 1.5 µM
NCI-H1299 [13] = test: Induction of apoptosis in human H1299 cells assessed as change in morphology at 1.5 uM after 24 hrs using Acridine orange/ethidium bromide staining by fluorescence microscopy; type: functional, cell-based
NCI-H1299 [14] = test: Induction of apoptosis in human H1299 cells assessed as caspase 3 protein expression after 24 hrs by Western blot analysis; type: functional, cell-based

CC[C@@]1(O)C(=O)OCc2c1cc1n(c2=O)Cc2cc3c(CN(C)C)c(O)ccc3nc2-1 [TOPOTECAN]
IC50 [1]: 4.18 µM | IC50 [2]: > 10 µM | IC50 (MCF7): 3.46 µM | IC50 [3]: > 10 µM

COc1ccc(C(=O)NNC(=O)/C=C/c2ccc(O)c(OC)c2)cc1
IC50 [1]: 5.42 µM | IC50 [2]: > 10 µM | IC50 (MCF7): 5.62 µM | IC50 [3]: > 10 µM

COc1ccc(C(=O)NNC(=O)/C=C/c2ccc(O)cc2)cc1
IC50 [1]: 6.64 µM | IC50 [2]: > 10 µM | IC50 (MCF7): 6.02 µM | IC50 [3]: 8.44 µM

COc1cc(/C=C/C(=O)NNC(=O)c2ccccc2)ccc1O
IC50 [1]: 6.16 µM | IC50 [2]: 9.55 µM | IC50 (MCF7): 5.22 µM | IC50 [3]: 9.17 µM

O=C(/C=C/c1ccc(O)cc1)NNC(=O)c1ccccc1
IC50 [1]: 7.36 µM | IC50 [2]: 9.75 µM | IC50 (MCF7): 7.39 µM | IC50 [3]: 9.32 µM

COc1cc(/C=C/C(=O)NNC(=O)c2ccc(O)cc2)ccc1O
IC50 [1]: 1.5 µM | IC50 [2]: > 10 µM | IC50 (MCF7): 4.36 µM | IC50 [3]: > 10 µM | Activity [4]: 8.9% | Activity [5]: 12.3% | Activity [6]: Active | Activity [7]: tde | Activity [8]: 31.7% | Activity [9]: 46.2% | Activity [10]: 5.2% | Activity [11]: 4.9% | Activity [12]: Non-toxic | Activity (NCI-H1299 [13]): Active | Activity (NCI-H1299 [14]): Dose-dependent effect

O=C(/C=C/c1ccc(O)cc1)NNC(=O)c1ccc(O)cc1
IC50 [1]: 5.47 µM | IC50 [2]: 8.62 µM | IC50 (MCF7): 8.8 µM | IC50 [3]: > 10 µM

COc1ccc(C(=O)NNC(=O)/C=C/c2ccc(O)c(O)c2)cc1
IC50 [1]: 5.42 µM | IC50 [2]: 9.39 µM | IC50 (MCF7): 4.86 µM | IC50 [3]: 9.57 µM

COc1ccc(C(=O)NNC(=O)/C=C/c2cc(OC)c(O)c(OC)c2)cc1
IC50 [1]: 7.45 µM | IC50 [2]: 9.42 µM | IC50 (MCF7): 7.17 µM | IC50 [3]: 9.45 µM

O=C(/C=C/c1ccc(O)c(O)c1)NNC(=O)c1ccccc1
IC50 [1]: 6.77 µM | IC50 [2]: 8.85 µM | IC50 (MCF7): 4.75 µM | IC50 [3]: 8.12 µM

O=C(/C=C/c1ccc(O)c(O)c1)NNC(=O)c1ccc(O)cc1
IC50 [1]: 4.48 µM | IC50 [2]: > 10 µM | IC50 (MCF7): 6.05 µM | IC50 [3]: 8.68 µM

COc1cc(/C=C/C(=O)NNC(=O)c2ccccc2)cc(OC)c1O
IC50 [1]: > 10 µM | IC50 [2]: > 10 µM | IC50 (MCF7): > 10 µM | IC50 [3]: > 10 µM

COc1cc(/C=C/C(=O)NNC(=O)c2ccc(O)cc2)cc(OC)c1O
IC50 [1]: 8.71 µM | IC50 [2]: > 10 µM | IC50 (MCF7): 9.32 µM | IC50 [3]: > 10 µM
